Measurements as given in PubChem BioAssay (NCI).
“And” between values parts separate entries of the source, which are not always exact repeats. Equal values may be shown once.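 96-well plates; 48 h exposure; 5 concentrations. Endpoints by linear interpolation between flanking doses. Not reached: highest tested concentration assigned. The concentration for full growth arrest is given as TGI.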

Legend:
Assay in all cases: NCI tumour cell line growth inhibition, 48 h
[1] = tested on: A498 renal
[2] = tested on: CCRF-CEM leukemia
[3] = tested on: COLO 205 colon
[4] = tested on: DU-145 prostate
[5] = tested on: HCT-116 colon
[6] = tested on: HCT-15 colon
[7] = tested on: MDA-MB-231 breast
[8] = tested on: MDA-N
[9] = tested on: NCI/ADR-RES ovarian
[10] = tested on: OVCAR-3 ovarian
[11] = tested on: OVCAR-8 ovarian
[12] = tested on: SW-620 colon
[13] = tested on: UACC-257 melanoma
[14] = tested on: UACC-62 melanoma

| Structure (SMILES) | TGI [1] | TGI [2] | TGI [3] | TGI [4] | TGI [5] | TGI [6] | TGI [7] | TGI [8] | TGI [9] | TGI [10] | TGI [11] | TGI [12] | TGI [13] | TGI [14] |
| --- | --- | --- | --- | --- | --- | --- | --- | --- | --- | --- | --- | --- | --- | --- |
| Cc1nc2c(=O)n(-c3ccccc3)c3ccccc3c2o1 | > 100 µM | > 100 µM | > 100 µM | > 100 µM | > 100 µM | > 100 µM | > 100 µM | > 100 µM | > 100 µM | > 100 µM | > 100 µM | > 100 µM | > 100 µM | > 100 µM |
| CCN1C(=O)C(C)S/C1=N\NC(=O)CSc1nc2ccccc2c(=O)n1CC (configuration not stated) | > 100 µM | > 100 µM | > 100 µM | > 100 µM | > 100 µM | > 100 µM | > 100 µM | > 100 µM | > 100 µM | > 100 µM | > 100 µM | > 100 µM | > 100 µM | > 100 µM |
| CC(C)(C)Nc1noc(=O)n1C(C)(C)C | > 100 µM | > 100 µM | > 100 µM | > 100 µM | > 100 µM | > 100 µM | > 100 µM | > 100 µM | > 100 µM | > 100 µM | > 100 µM | > 100 µM | > 100 µM | > 100 µM |
| CCOC(=O)CSc1nnc2cc(CN3CCCC3)c(-c3ccc(Cl)cc3)nn12 | > 100 µM | > 100 µM | > 100 µM | > 100 µM | > 100 µM | > 100 µM | > 100 µM | > 100 µM | > 100 µM | > 100 µM | > 100 µM | > 100 µM | > 100 µM | > 100 µM |
| CC(=O)Nc1cc2c3c(c1)CCCN3CCC2 | > 100 µM | > 100 µM | > 100 µM | > 100 µM | > 100 µM | > 100 µM | > 100 µM | > 100 µM | > 100 µM | > 100 µM | > 100 µM | > 100 µM | > 100 µM | > 100 µM |
| COc1cc2cccc(N)c2cc1OC | > 100 µM | > 100 µM | > 100 µM | > 100 µM | > 100 µM | > 100 µM | > 100 µM | > 100 µM | > 100 µM | > 100 µM | > 100 µM | > 100 µM | > 100 µM | > 100 µM |
| O=C(O)CCc1ccc2c(c1)C(=O)CC2 | > 100 µM | > 100 µM | > 100 µM | > 100 µM | > 100 µM | > 100 µM | > 100 µM | > 100 µM | > 100 µM | > 100 µM | > 100 µM | > 100 µM | > 100 µM | > 100 µM |
| COC(=O)C1OC(O[C@H]2CC[C@]3(C)[C@H]4CC=C5[C@@H]6CC(C)(C)CC[C@]6(C(=O)OC6OCC(O)C(O)C6OC6OC(C)C(OC7OCC(O)C(OC8OCC(O)C(O)C8O)C7O)C(OC7OCC(O)C(O)C7O)C6O)CC[C@@]5(C)[C@]4(C)CC[C@H]3C2(C)C)C(O)C(OC2OCC(O)C(O)C2O)C1O (some centres not stated) | 3.55 µM and 4.34 µM | > 100 µM and 30.2 µM | 2.97 µM and 3.08 µM | > 70.6 µM and 37.2 µM | > 100 µM and 23.3 µM | > 100 µM and 35.2 µM | 8.81 µM and 13.5 µM | 3.35 µM and 4.04 µM | > 100 µM and 21 µM | > 100 µM and 45.9 µM | > 100 µM and 23.3 µM | > 100 µM and 24 µM | 8.58 µM and 10.8 µM | 8.36 µM and 13.7 µM |
| NCCN1C(=O)CN=C(c2ccc(Cl)cc2)c2cc(Cl)ccc21 | 33.8 µM | 64.2 µM | 38.7 µM | 34.8 µM | 30.1 µM | 34.7 µM | 30.5 µM | 31.4 µM | 32.8 µM | 29.3 µM | 32.2 µM | 43 µM | 34.9 µM | 32.2 µM |
| CN(C)P(=O)(Oc1ccc(CC(NC(=O)OCc2ccccc2)C(=O)OCc2ccccc2)cc1)N(C)C (configuration not stated) | 38.1 µM | 7.56 µM | 42.8 µM | 29.2 µM | 31.3 µM | 33 µM | 34.3 µM | 34 µM | 36.2 µM | 11.4 µM | 33.2 µM | 45.8 µM | 47.5 µM | 31.5 µM |
| COc1cc(OC)c2nc(C)c3c(c2c1)NCC3 | 27.7 µM | 31.3 µM | 17.1 µM | 59 µM | 12.9 µM | 25.9 µM | 21.8 µM | 21.1 µM | 71.2 µM | 33.4 µM | 19 µM | 19.1 µM | 15.9 µM | 22.4 µM |
| COC(=O)/C=C1/CCC(C)(C(=O)NS(=O)(=O)c2ccc(C)cc2)C1(C)C (configuration not stated) | > 100 µM | > 100 µM | > 100 µM | > 100 µM | > 100 µM | > 100 µM | > 100 µM | > 100 µM | > 100 µM | > 100 µM | > 100 µM | > 100 µM | > 100 µM | > 100 µM |
| CCOc1ccc(N/C(Cl)=C(Cl)\C(=C(\Nc2ccc(OCC)cc2)n2nnc3ccccc32)[N+](=O)[O-])cc1 | 39 µM | 33.9 µM | 25.4 µM | 46.8 µM | 5.29 µM | 7.4 µM | 15.6 µM | 13.2 µM | > 100 µM | 20.3 µM | 3.46 µM | 5.71 µM | 28.6 µM | 34.6 µM |
